The target of test [1] is T1, Ah receptor (AhR) (Mus musculus, UniProt P30561).
T1 sequence (P30561 10-848): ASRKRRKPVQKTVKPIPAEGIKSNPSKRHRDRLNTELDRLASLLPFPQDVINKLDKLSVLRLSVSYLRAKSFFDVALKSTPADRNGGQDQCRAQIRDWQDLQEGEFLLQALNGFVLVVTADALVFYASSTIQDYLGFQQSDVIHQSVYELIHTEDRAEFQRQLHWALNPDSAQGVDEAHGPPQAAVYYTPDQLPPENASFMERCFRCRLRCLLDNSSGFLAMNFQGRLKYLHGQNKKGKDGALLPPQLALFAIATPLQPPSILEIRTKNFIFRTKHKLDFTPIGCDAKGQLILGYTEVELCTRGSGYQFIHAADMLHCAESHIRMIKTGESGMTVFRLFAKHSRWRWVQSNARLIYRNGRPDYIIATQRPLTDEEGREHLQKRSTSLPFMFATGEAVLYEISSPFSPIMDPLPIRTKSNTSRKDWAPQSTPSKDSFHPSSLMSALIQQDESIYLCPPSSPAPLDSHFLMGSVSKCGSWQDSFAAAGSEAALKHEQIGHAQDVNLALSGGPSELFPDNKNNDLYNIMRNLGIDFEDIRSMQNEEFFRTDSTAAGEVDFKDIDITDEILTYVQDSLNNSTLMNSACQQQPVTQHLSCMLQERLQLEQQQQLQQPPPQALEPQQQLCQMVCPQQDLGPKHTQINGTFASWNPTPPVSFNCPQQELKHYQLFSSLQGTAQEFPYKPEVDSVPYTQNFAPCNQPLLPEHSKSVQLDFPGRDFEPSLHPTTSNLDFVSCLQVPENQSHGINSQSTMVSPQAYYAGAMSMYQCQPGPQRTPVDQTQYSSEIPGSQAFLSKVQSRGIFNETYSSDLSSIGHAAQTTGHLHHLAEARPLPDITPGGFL
In words: yAhR nuclear translocation in yAHAYc6 cells, fluorescence microscopy. It is filed as cell-based.

Test [2] deals with T1, Ah receptor (AhR). In words: yAhR nuclear translocation in yAHAYc6 cells. It is filed as cell-based.

The values that follow come from article PMC7260106 (Toxicology in vitro : an international journal published in …, 2020).

Take `O=C1Nc2ccccc2/C1=C1/Nc2ccccc2C1=O` [indirubin]: the “yAhR nuclear translocation in yAHAYc6 cells, fluorescence microscopy” value (shortened to “yAhR nuclear translocation”) on Ah receptor (AhR) [1] was “known AhR agonists (TCDD, DBA, PCB77, indirubin, 3MC and BNF”. Still for that read-out and setting: the value for `Cc1ccc2cc3c(ccc4ccccc43)c3c2c1CC3` [3-methylcholanthrene] was “known AhR agonists (TCDD, DBA, PCB77, indirubin, 3MC and BNF”. In the case of `c1ccc2c(c1)ccc1cc3c(ccc4ccccc43)cc12` [dibenz(a,h)anthracene], on Ah receptor (AhR) [1], the “yAhR nuclear translocation” value is “known AhR agonists (TCDD, DBA, PCB77, indirubin, 3MC and BNF”. As a reminder, the EC50 is the concentration that produces a half-maximal response. In turn, `Clc1cc2c(cc1Cl)Oc1cc(Cl)c(Cl)cc1O2` [TCDD, 2,3,7,8-tetrachlorodibenzo-p-dioxin] yielded an EC50 at Ah receptor (AhR) [2] of 0.2 nM. With `Clc1ccc(-c2ccc(Cl)c(Cl)c2)cc1Cl` [PCB77, 3,3’,4,4’-Tetrachlorobiphenyl], the “yAhR nuclear translocation” value on Ah receptor (AhR) [1] is “known AhR agonists (TCDD, DBA, PCB77, indirubin, 3MC and BNF”.
